Experimental data published in US10364256B2 (GlaxoSmithKline Intellectual Property Development Limited, priority 2015, dated 2019).
pIC50: −log10 of the molar value.

Tests used:
[1] = biological target: T1, full length Keap1 protein / full length NRF2 protein (Homo sapiens, UniProt Q14145); test: NRF2-Keap1 TR-FRET Low Protein Assay; assay type: binding; settings: 1.25 nM Keap1 FlagHis and 2.5 nM biotin-NRF2 added
T1 construct: full length NRF2 protein and full length Keap1 protein (Keap1 exists a dimer) are used; His
Summary of the method: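 Flag-tagged full-length Keap1 was preincubated with compound (3-fold series) for 2.25 h at 37 °C in Tris pH 8.0/MgCl2/NaCl/BSA/DTT/CHAPS. Biotin-Avi-NRF2 (added at 2.5 nM) was then bound for 1.25 h at 4 °C. Eu-streptavidin/anti-Flag-APC TR-FRET (665/615 nm) was read after 1 h at RT, and pIC50 came from a four-parameter fit.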

[2] = biological target: T2, Keap1 Kelch domain (321-609) / TAMRA-labeled 16mer NRF2 peptide (ETGE motif) (Homo sapiens, UniProt Q14145); test: NRF2-Keap1 FP Assay (Keap1 Kelch fluorescence polarization); assay type: binding; settings: 20 nM Keap1 (321-609), 8 nM Tamra labeled peptide
T2 construct: the Kelch domain (321-609) of Keap1 is used
Summary of the method: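 Compound dilutions (3-fold) were incubated 1 hr at room temperature with 20 nM Keap1 Kelch (321-609) and 8 nM TAMRA-labeled ETGE 16mer peptide. Buffer was 50 mM Tris pH 8.0, 100 mM NaCl, 5 mM MgCl2, 1 mM DTT, 2 mM CHAPS, 0.005% BSA. Fluorescence polarization (mP) was normalized to controls and fitted with a four-parameter equation to give pIC50.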

T2 sequence (Q14145 321-609): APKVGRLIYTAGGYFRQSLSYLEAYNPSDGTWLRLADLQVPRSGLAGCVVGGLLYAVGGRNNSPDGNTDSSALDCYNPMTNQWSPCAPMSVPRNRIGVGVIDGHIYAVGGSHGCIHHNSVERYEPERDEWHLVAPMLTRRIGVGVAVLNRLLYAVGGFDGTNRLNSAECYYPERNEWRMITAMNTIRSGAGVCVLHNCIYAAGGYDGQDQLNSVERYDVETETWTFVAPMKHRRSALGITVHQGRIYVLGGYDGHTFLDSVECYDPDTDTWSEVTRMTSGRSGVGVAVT
T1 sequence (Q14145 whole entry): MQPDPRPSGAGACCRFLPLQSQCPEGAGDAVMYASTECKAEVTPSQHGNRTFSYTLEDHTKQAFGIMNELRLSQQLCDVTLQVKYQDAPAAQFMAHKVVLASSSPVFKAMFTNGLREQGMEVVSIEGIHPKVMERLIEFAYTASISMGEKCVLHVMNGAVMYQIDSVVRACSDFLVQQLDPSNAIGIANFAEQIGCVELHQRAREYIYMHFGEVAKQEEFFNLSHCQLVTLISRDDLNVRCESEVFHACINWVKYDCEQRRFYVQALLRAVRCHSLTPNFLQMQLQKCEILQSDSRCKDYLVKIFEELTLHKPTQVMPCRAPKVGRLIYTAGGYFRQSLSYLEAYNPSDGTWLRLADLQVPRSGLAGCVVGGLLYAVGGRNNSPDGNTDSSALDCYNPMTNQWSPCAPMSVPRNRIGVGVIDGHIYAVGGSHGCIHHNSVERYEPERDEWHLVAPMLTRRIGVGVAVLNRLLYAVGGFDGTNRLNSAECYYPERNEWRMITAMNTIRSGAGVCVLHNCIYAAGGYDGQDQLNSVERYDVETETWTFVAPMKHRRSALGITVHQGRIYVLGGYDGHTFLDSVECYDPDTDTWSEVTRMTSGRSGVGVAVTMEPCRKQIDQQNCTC

**Q.** `Cn1cc([C@H]2C[C@@H]2c2c(C(=O)O)cnn2-c2cccc(-c3cccc(C(=O)N4CCCCC4)c3F)c2)nn1` (racemic) [Example 258, 1-(2′-Fluoro-3′-(piperidine-1-carbonyl)-[1,1′-biphenyl]-3-yl)-5-(trans-2-(1-methyl-1H-1,2,3-triazol-4-yl)cyclopropyl)-1H-pyrazole-4-carboxylic Acid] was tested. Which pIC50 [1] did it give?
**A.** The pIC50 was > 8.00.

**Q.** What about the pIC50 [2] of the same molecule?
**A.** Its pIC50 is 7.00 to 8.00.

**Q.** With `CCOC[C@@H]1CCCN1C(=O)c1cccc(-c2cccc(-n3ncc(C(=O)O)c3[C@@H]3C[C@H]3c3cn(C)nn3)c2)c1F` [Example 267] as the molecule, how does the pIC50 [1] read?
**A.** The pIC50 was > 8.00.

**Q.** What about the pIC50 [2] of the same molecule?
**A.** The pIC50 was 7.00 to 8.00.

**Q.** With `CC(Oc1cccc(-c2cccc(-n3ncc(C(=O)O)c3[C@@H]3C[C@H]3c3cn(C)nn3)n2)c1)C1CCCCC1` (relative stereo) [Example 249, 1-(6-(3-(1-Cyclohexylethoxy)phenyl)pyridin-2-yl)-5-(trans-2-(1-methyl-1H-1,2,3-triazol-4-yl)cyclopropyl)-1H-pyrazole-4-carboxylic Acid] as the molecule, how does the pIC50 [1] read?
**A.** The pIC50 was > 8.00.

**Q.** And the pIC50 [2]?
**A.** Its pIC50 is 7.00 to 8.00.

**Q.** `CCC1Cc2ccccc2CN(Cc2cccc(-c3cccc(-n4ncc(C(=O)O)c4[C@@H]4C[C@H]4c4cn(C)nn4)c3)c2)C1` (relative stereo) [Example 252, 1-(3′-((4-Ethyl-4,5-dihydro-1H-benzo[c]azepin-2(3H)-yl)methyl)-[1,1′-biphenyl]-3-yl)-5-(trans-2-(1-methyl-1H-1,2,3-triazol-4-yl)cyclopropyl)-1H-pyrazole-4-carboxylic Acid] was tested. Which pIC50 [1] did it give?
**A.** The pIC50 was 7.00 to 8.00.

**Q.** And the pIC50 [2]?
**A.** Its pIC50 is 7.00 to 8.00.

**Q.** How did the pIC50 [1] turn out when `CCC[C@@H]1CCCCN1C(=O)c1cccc(-c2cccc(-n3ncc(C(=O)O)c3CCc3cn(C)nn3)c2)c1F` [Example 55, (R)-1-(2′-Fluoro-3′-(2-propylpiperidine-1-carbonyl)-[1,1′-biphenyl]-3-yl)-5-(2-(1-methyl-1H-1,2,3-triazol-4-yl)ethyl)-1H-pyrazole-4-carboxylic Acid] was run?
**A.** The pIC50 was 7.00 to 8.00.

**Q.** What about the pIC50 [2] of the same molecule?
**A.** The pIC50 was 7.00 to 8.00.

**Q.** `Cn1cc([C@H]2C[C@@H]2c2c(C(=O)O)cnn2-c2cccc(-c3cccc(C(=O)N4CCCC(C)(C)C4)c3F)c2)nn1` (racemic) [Example 259, 1-(2′-Fluoro-3′-(3,3-dimethylpiperidine-1-carbonyl)-[1,1′-biphenyl]-3-yl)-5-(trans-2-(1-methyl-1H-1,2,3-triazol-4-yl)cyclopropyl)-1H-pyrazole-4-carboxylic Acid] was tested. Which pIC50 [1] did it give?
**A.** Its pIC50 is > 8.00.

**Q.** And the pIC50 [2]?
**A.** The pIC50 was 7.00 to 8.00.
